Here are results for 5 compounds from patent EP1925625A2, “Method for screening modulators of mitochondrial functionning and new modulators obtained” (Theraptosis S.A., priority 2002, dated 2008).

Assay [1] deals with purified mouse liver mitochondria. Briefly: Flow cytometric (real-time FCM) analysis of mitochondrial morphology (FSC/SSC) on isolated mitochondria. The settings on record: for changes of mitochondrial size (FSC) and structure (SSC): 1-30 µM Calcium, 20 µM CCCP or alamethicin added to isolated mitochondria; for effect on alamethicin induced MMP: pre-treatment with inhibitor, then alamethicin (5 µg/ml). On the procedure:
(§1) Liver mitochondria were isolated from 3-4 weeks old Balb-c mice (IFFA CREDO, Saint Germain sur l'Arbresle, France). Animals were fasted overnight before being killed by […] dislocation. Liver mitochondria were prepared as described (Jacotot, 2000). All steps were carried out at 4°C. Finally, the organelles were resuspended in 'swelling buffer', composed by 200 mM sucrose, 5 mM succinate, 10 mM Tris-MOPS (pH 7.4), 1 mM H3PO4, 2 µM Rotenone, and 10 µM EGTA at pH=7.4. Spectrophotometric and flow cytometric analyses were performed in this buffer. The protein content of isolated mitochondria was determined by the Bradford assay.
Fluorescence-activated flow cytometry was performed using a 3-color FACSCalibur cytometer equipped with a 15 mW air-cooled 488 nm argon laser (Becton Dickinson, San Jose, CA). Mitochondria analyses were performed after appropriate settings of the Forward angle light scatter (FSC) - Side angle light scatter (SSC) detectors (see Fig. 1). Discrimination between mitochondria and cellular debris and noise background was performed by an appropriate gating on FSC-SSC scatter plots (Fig. 1)(Radcliff G, Jaroszeski MJ 1998 Methods Mol Biol 91:1-24 Basics of flow cytometry). Systematic confirmation of the validity of this gating was obtained by a labeling of mitochondria with the ΔΨm-insensitive mitochondrial dye MitoTracker® Green (MTG, Molecular Probes, Eugene, OR) (Jacotot et al., 2001). Briefly mitochondria (1.5 µg proteins) were respuspended in 400 µl swelling buffer containing 200 nM MTG for 15 min at room temperature. The organelles were immediately analyzed on the cytometer with the CellQuest Pro software (Becton Dickinson). MTG fluorescence was collected in the FL-1 channel (530 +/- 15 nm) and analyzed in logarithmic amplifier mode, using the PMT at a voltage adjusted to 907. Data from 20,000 gated mitochondria were recorded and analyzed.
Mitochondrial size was analyzed through the light scattered by the organelles at low angle using the Forward scatter (FSC) photodiode. Signals were collected using the E-00 setting, with a logarithmic amplification gain of 5.41. Mitochondrial structure was evaluated by the light scattered in the perpendicular direction. It was assessed by the sensitive Side scatter (SSC) photomultiplier tube (PMT), using a voltage of 581, and a linear amplification gain adjusted to 4.27. The morphological changes related to swelling of purified mitochondria were monitored by the increase in mitochondrial size (FSC) and the decrease in the organelle structure (SSC) using the CellQuest Pro software. The FSC/SSC ratio was calculated by the FCS Assistant software and permitted to integrate both variations in size and structure into only one parameter.
Fixed-time analyses were performed on mitochondrial samples containing 10 µg proteins in 100 µl of swelling buffer. Samples were submitted to MPP-inducing reagents for 30 min at 25°C. Samples were immediately analyzed by flow cytometry, and data from 20.000 mitochondria were recorded. The percentage of specific swelling determined on forward scatter was calculated as follows; (FSCCa2+ - FSCReagent ) x 100 / (FSCCa2+ - FSCCo), were FSCCa2+, FSCReagent and FSCCo correspond to the FSC values obtained for CaCl2- treated, reagent - treated and untreated mitochondria respectively. Similar calculation was used to determine the percentage of specific swelling on SSC and FSC/SSC ratio values.
Real-time experiments were performed on mitochondrial samples containing 1.5 µg proteins in 800 µl (= 2 ng / […]l) of swelling buffer. Samples were acquired on the flow cytometer for 5 minutes to record basal morphological criteria. Then reagents were added to samples, and variations in light scattering were recorded for the following 15 minutes. The sample flow rate was settled to 12 µl +/- 3 µl / min for both fixed- and real-time analyses. […]
For orientation: Flow cytometry measures light scatter and fluorescence of single cells or particles in a stream.

Assay [2] shares this test system. Briefly: Flow cytometric analysis of mitochondrial transmembrane potential (JC-1) on isolated mitochondria. The following applies: for changes of JC-1 fluorescence (ΔΨm): real-time, 20 µM mClCCP, 30 µM Ca2+ or alamethicin. The method, then:
as §1
Mitochondrial transmembrane potential (ΔΨm) was assessed by 5,5',6,6',-tetracholoro-1,1,3,3'-tetraethylbenzimidazolyl carbocyanine iodide (JC-1, Molecular Probes) incorporation. This potential-sensitive cationic dye accumulates in the mitochondrial matrix according to the Nernst equation (Reers et al., 1991). JC-1 green fluorescence, associated with JC-1 monomers was collected in the FL-1 channel. JC-1 orange fluorescence, associated with the formation of J-aggregates was collected in the FL-2 channel (585 +/- 21 nm) (Reers et al, 1991). Both fluorescences were recorded in logarithmic amplifier mode, using the PMT at a voltage adjusted to 907 and 622 respectively. Spectral overlap was avoided by adjusting compensation network as follows: FL1 - 18.5% FL2 and FL2 - 25.4% FL1. The JC-1 orange green fluorescence ratio was calculated with the FCS Assistant software.
Fixed-time detection of ΔΨM was performed on mitochondrial samples containing 10 µg proteins in 100 µl of swelling buffer. Samples were submitted to MPT-inducing drugs for 15 min at 25°C, and JC-1 was added at 800 nM for 15 min at 37°C in the dark. Samples were immediately analyzed by flow cytometry, and data from 20.000 mitochondria (gated on FSC-SSC parameters) were recorded. This assay permitted to quantify the percentage of highly energized mitochondria (with both orange and green fluorescence) and depolarized mitochondria (with green fluorescence only) as depicted in part C2 of Fig.1.
Real-time monitoring of ΔΨm was performed on mitochondrial samples containing 1.5 µg proteins in 400 µl of swelling buffer. JC-1 loading was performed at 400 nM in for 15 minutes at 37°C. […] Then drugs were added to the sample, and ΔΨm variations were recorded for the following 16 minutes. Depolarization curves were drawn as previously indicated for swelling curves; the time scale was divided into discrete periods of 1 minute and the mean of JC-1 orange and JC-1 green fluorescence of the corresponding mitochondrial subsets was calculated by the CellQuest Pro software and exported into the Microsoft Excel software.

[3] abbreviates: 50 µM BA or 10 µM CsA 5 minutes, then 30 min Ca2+ (30 µM).

Take alamethicin: in assay [1], the “changes of mitochondrial size (FSC) and structure (SSC)” value (from here on “changes of mitochondrial size”) is “simultaneous FSC increase and SSC decrease”. In addition, in assay [2], the “changes of JC-1 fluorescence (ΔΨm)” value was “a decrease in JC-1 orange fluorescence and a significant increase in JC-1 green fluorescence”.

On to `N.N.N.N.N.N.N.N.N.N.N.N.N.N.[Cl-].[Cl-].[Cl-].[Cl-].[Cl-].[Cl-].[O-2].[O-2].[Ru+3].[Ru+3].[Ru+4]` [Ruthenium red], for which the “effect on alamethicin induced MMP” value in assay [1] was “not affected”.

As to `N#CC(C#N)=NNc1cccc(Cl)c1` [CCCP, carbonyl cyanide meta-chlorophenylhydrazone], the “changes of mitochondrial size” value in assay [1] is “low but significant granularity (SSC) decrease without detectable size (FSC) changes”. Moreover, the “changes of JC-1 fluorescence (ΔΨm)” value in assay [2] was “rapid decrease in JC-1 orange fluorescence and a slow decrease in monomeric JC-1 green fluorescence”.

`CO[C@H](C/C=C\C=C\CC/C=C/C[C@H](C)/C=C/C(=C\C(=O)O)CC(=O)O)/C(C)=C\C=C(/C)C(=O)O` [bongkrekic acid]: the “effect on Ca2+ induced SSC decrease” value in assay [1] (setting [3]) was “partly affect”. Moreover, in assay [1], the “effect on alamethicin induced MMP” value is listed as “not affected”. Also, the “effect on Ca2+ induced ΔΨm loss” value in assay [2] (setting [3]) was “strongly reduces”.

Consider `[Ca+2].[Cl-].[Cl-]` [Calcium, CaCl2], for which the “changes of mitochondrial size” value in assay [1] is “dose-dependent SSC decrease and FSC increase”. Moreover, in assay [2], the “changes of JC-1 fluorescence (ΔΨm)” value was “a decrease in JC-1 orange fluorescence and a significant increase in JC-1 green fluorescence”.
